These results are taken from patent US10449182B2 (The Regents of the University of California, priority 2012, dated 2019).

Some results are limits rather than exact numbers.

The subject of assay [1] is p21. The experiment in a line: p21 levels by immunoblotting in ACHN and/or 786-O cells. Also: key: + denotes inhibition of p21 secretion or the absence of p21; − denotes the presence of p21. The format is cell-based, human. Particulars: 24 h of culture with compound, immunoblot. The procedure:
Cells harvested after growth to confluence in 10% serum-containing media and treatment with compounds of the invention were washed with phosphate buffered saline (PBS) and lysed in lysis buffer composed of 50 mM HEPES, 1% Triton X-100, 10 mM sodium pyrophosphate, 100 mM sodium fluoride and 4 mM EDTA at 4° C. Cell lysates were pelleted. Supernatants were electrophoresed and immunoblotted. Membranes were blocked in 5% nonfat dry milk for 30 min at room temperature and probed with p21 antibody. Membranes were then probed with horseradish peroxidase tagged anti-mouse or anti-rabbit IgG antibodies (diluted 3:20,000 and 3:10,000 in 5% nonfat dry milk, respectively) for 2 h at room temperature. Signal was detected using enhanced chemiluminescence (ECL) solutions.

The target in the next assay is T1, Raf-1 (Homo sapiens, UniProt P04049).
T1 construct: Full length recombinant Raf-I and b-Raf (V600E) kinases; purchased US Biological (Swampscott, Mass.)
The experiment in a line: Recombinant Raf kinase inhibition (ADP-Glo Kinase Assay), Raf-1. The format is biochemical. Particulars: 10 nM Raf kinase, 1 μM MEK-1, 10 μM ATP, 22° C., 1 hour. The procedure: (§1) All assays were performed using 10 nM Raf kinase, 1 μM MEK-1, 10 μM ATP, at 22° C. for 1 hour. Inhibitors were dissolved in DMSO and IC50 values were obtained by measuring the change in the ADP production (luminescent signal intensity) at various inhibitor concentrations as compared to the control. Individual data sets were performed in duplicate and each IC50 value was determined from three separate experiments. The data were fit to a saturation curve using KaleidaGraph graphing program (Synergy Software) to determine the IC50 values.
On the technique in general: In ADP-Glo the light output rises with the ADP produced.

The target of a further assay is T2, b-Raf (V600E) (Homo sapiens, UniProt P15056, V600E).
T2 construct: Full length recombinant Raf-I and b-Raf (V600E) kinases; purchased US Biological (Swampscott, Mass.)
In words: Recombinant Raf kinase inhibition (ADP-Glo Kinase Assay), b-Raf (V600E). The format is biochemical. Particulars: 10 nM Raf kinase, 1 μM MEK-1, 10 μM ATP, 22° C., 1 hour. The procedure:
as §1

A further assay addresses T3, human sEH (Homo sapiens, UniProt P34913).
T3 sequence (P34913 1-555): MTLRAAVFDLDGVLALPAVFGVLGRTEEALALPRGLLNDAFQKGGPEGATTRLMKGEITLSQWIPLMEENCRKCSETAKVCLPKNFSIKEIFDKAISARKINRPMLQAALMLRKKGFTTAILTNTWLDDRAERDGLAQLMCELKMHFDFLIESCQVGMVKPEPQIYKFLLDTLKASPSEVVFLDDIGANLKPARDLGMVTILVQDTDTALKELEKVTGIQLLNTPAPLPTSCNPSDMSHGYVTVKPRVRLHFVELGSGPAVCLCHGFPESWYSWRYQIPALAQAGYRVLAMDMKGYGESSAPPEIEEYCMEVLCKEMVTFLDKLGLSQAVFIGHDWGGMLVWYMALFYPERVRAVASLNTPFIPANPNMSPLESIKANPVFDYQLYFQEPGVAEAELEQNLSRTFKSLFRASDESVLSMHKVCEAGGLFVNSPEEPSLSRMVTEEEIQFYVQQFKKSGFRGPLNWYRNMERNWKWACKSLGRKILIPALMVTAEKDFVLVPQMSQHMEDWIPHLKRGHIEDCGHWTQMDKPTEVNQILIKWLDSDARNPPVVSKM
In words: Inhibitory activity against human sEH. Particulars: read-out: % Inhibition (IC50) Human sEH. It is filed as biochemical.

Assay [2] concerns p21. In words: Immunofluorescence staining of p21 in 786-O cells (FIG. 5). The format is cell-based, human. Particulars: 10 μM, 24 h, confocal microscopy. The procedure:
FIG. 5. […] 786-O cells were grown to confluence on 8-well chamber slides and treated with either Compound 2288 at 10 μM concentration or vehicle (DMSO) for 24 h. Immunofluorescence staining of p21 was visualized by confocal microscopy as described in Materials and Methods. p21 is green and the nuclear dye (DAPI) is blue. The experiment shown is representative of at least 3 separate experiments.
After appropriate treatments in 8 well chamber slides. immunofluorescence was conducted as described previously.^19 Briefly, the cells were fixed in 2% paraformaldehyde and blocked in the blocking buffer. After blocking, the cells were incubated with appropriate antibody, incubated with anti-mouse or anti-rabbit IgG (H+L), F(ab′)2 Fragment (Alexa Fluor® 488 Conjugate), and coverslipped with vectashield with DAPI. The specimens were examined by confocal microscopy.

The next assay relates to p21 mRNA. In words: Reverse transcriptase-PCR of p21 mRNA in 786-O cells (FIG. 3A). It is filed as cell-based, human. Particulars: 10 μM, RT-PCR. Here is the method: (§2) FIG. 3. […] 786-O cells were grown to confluence in 10% serum containing media and: (A) treated with Compound 2288 at 10 μM concentration or vehicle (DMSO) for the indicated time. mRNA was isolated and RT-PCR was performed as described in Materials and Methods. GAP DH is a loading control. (B) exposed to CHX (35 μM), Compound 2288 (10 μM). CHX (10 μg/ml) and Compound 2288 (10 μM), or vehicle (DMSO) for the indicated times and immunoblotting was performed with the antibodies indicated. β-actin is a loading control. The experiments shown are representative of at least 3 separate experiments.
Total mRNA was collected and cDNA synthesized using a Qiagen RNeasykit (Valencia, Calif.) following manufacture's protocol. The PCR primers used are 5′-[…]-3′ (p21 sense), 5′-[…]-3′ (p21 antisense), 5′-[…]-3′ (GAPDH sense), and 5′-[…]-3′ (GAPDH antisense). Reverse-transcribed cDNA was subjected to 40 cycles. Thermal cycling conditions are as follows: denaturation for 30 seconds at 94° C. annealing for 30 seconds at 56.5° C. and elongation for 1 minute at 72° C. DNA was analyzed by 2% ethidium bromide agarose gel electrophoresis.

Assay [3] relates to p21. In words: Immunoblotting of p21 and other proteins in normal kidney and cancer cells (FIG. 2). It is filed as cell-based, human. Particulars: HK2, 786-O, Caki-1, ACHN and Hey cells, 24 h, immunoblot. Here is the method: FIG. 2. […] The cells were harvested and immunoblotted with the antibodies indicated. (A) p21 and (B) p-Akt, p-ERK, t-Akt, t-ERK and p53 proteins are shown. β-actin is a loading control for each membrane. The experiment shown is representative of at least 3 separate experiments.
(§3) Immunoblotting was performed as previously described.^19 Briefly, after appropriate treatments, the cells were washed with phosphate buffered saline (PBS) and lysed in lysis buffer. Cell lysates were immunoblotted. Membranes were blocked in 5% nonfat dry milk for one hour at room temperature and probed with appropriate antibodies. Membranes were then probed with horseradish peroxidase tagged anti-mouse or anti-rabbit IgG antibodies. Signal was detected using ECL solutions.

Another assay concerns NCI60 cell lines. The experiment in a line: Cell viability TCA assay in NCI60 cell lines (FIG. 4). It is filed as cell-based, human. Particulars: 48 h. The procedure: FIGS. 4A, 4B & 4C. […] TCA assay was conducted in the NCI60 cell lines treated with Compound 2288 as described in the Materials and Methods. Compound 2288 inhibited various cancer cell growth.
TCA assay was conducted by NCI Developmental Therapeutics Program. Briefly, cells were plated in 96-well plates, and after appropriate treatments, the plates are incubated for an additional 48 h at 37° C., 5% CO2. 95% air, and 100% relative humidity. The assay was terminated by the addition of cold TCA. Cells were fixed by the addition of 50 μl of cold 50% (w/v) TCA (final concentration, 10% TCA) and incubated for 60 minutes at 4° C. The plates were washed water and air dried. Sulforhodamine B (SRB) solution (100 μl) at 0.4% (w/v) in 1% acetic acid was added to each well, and plates were incubated for 10 minutes at room temperature. After staining, the plates were washed with 1% acetic acid and air dried. Bound stain was subsequently solubilized with 10 mM trizma base, and the absorbance was read on an automated plate reader at a wavelength of 515 nm.

Assay [4] has as its system p21. In words: p21 protein stability with CHX, immunoblotting in 786-O cells (FIG. 3B). The format is cell-based, human. Particulars: 10 μM with CHX. Here is the method: as §2, §3
A general note: A western blot detects proteins with antibodies after separation by electrophoresis.

Assay [5] relates to p21. Particulars: Inoue et al. (2011) Cancer Biol. Ther.; cited from earlier work.

T2 sequence (P15056 whole entry V600E): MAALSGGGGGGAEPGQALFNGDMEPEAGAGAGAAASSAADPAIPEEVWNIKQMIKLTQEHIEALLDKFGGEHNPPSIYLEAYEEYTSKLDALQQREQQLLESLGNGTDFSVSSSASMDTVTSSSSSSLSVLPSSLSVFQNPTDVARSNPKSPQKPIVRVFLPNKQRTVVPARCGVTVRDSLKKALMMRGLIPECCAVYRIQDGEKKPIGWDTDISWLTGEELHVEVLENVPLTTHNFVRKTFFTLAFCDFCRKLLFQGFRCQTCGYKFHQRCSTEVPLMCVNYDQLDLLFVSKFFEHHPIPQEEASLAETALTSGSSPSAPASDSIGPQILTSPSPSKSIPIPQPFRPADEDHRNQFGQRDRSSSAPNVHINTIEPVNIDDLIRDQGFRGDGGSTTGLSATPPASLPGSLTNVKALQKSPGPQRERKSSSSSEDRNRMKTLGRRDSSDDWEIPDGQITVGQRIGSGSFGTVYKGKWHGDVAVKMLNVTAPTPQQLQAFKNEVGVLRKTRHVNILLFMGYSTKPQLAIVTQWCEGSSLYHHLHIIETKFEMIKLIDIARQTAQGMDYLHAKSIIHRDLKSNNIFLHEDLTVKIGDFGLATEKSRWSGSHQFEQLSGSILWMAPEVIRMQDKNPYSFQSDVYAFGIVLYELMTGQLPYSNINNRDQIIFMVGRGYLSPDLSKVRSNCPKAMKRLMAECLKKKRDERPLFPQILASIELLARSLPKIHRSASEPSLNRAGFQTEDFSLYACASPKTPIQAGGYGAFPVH

In the case of `CCC(=O)N1CCC(NC(=O)NC23CC4CC(CC(C4)C2)C3)CC1` [Compound 1163], in the assay on p21 [1], the p21 inhibition result is listed as “−”.

Regarding `O=C(NC12CC3CC(CC(C3)C1)C2)N[C@H]1CC[C@H](Oc2ccc(C(=O)O)cc2)CC1` [Compound 1471], the p21 inhibition result with p21 [1] is reported as “−”.

Regarding `CS(=O)(=O)N1CCC(NC(=O)Nc2ccc(OC(F)(F)F)cc2)CC1` [Compound 1709], the p21 inhibition entry in the assay with p21 [1] was “−”.

With `O=C(Nc1ccc(OC(F)(F)F)cc1)N[C@H]1CC[C@H](Oc2ccc(C(=O)O)cc2)CC1` [Compound 1728], the p21 inhibition entry in the assay with p21 [1] was “−”.

On to `CCC(=O)N1CCC(NC(=O)Nc2ccc(OC(F)(F)F)cc2)CC1` [Compound 1770], for which, in the assay with p21 [1], the p21 inhibition entry is on record as “−”.

As to `N#Cc1ccc(O[C@H]2CC[C@H](NC(=O)Nc3ccc(Cl)c(C(F)(F)F)c3)CC2)cc1` [Compound 2182], the p21 inhibition entry in the assay with p21 [1] is listed as “+”.

As to `O=C(Nc1ccc(Cl)c(C(F)(F)F)c1)N[C@H]1CC[C@H](Oc2ccc(C(=O)O)cc2)CC1` [Compound 2221], the p21 inhibition result in the assay on p21 [1] is “−”. Moreover, the IC50 on Raf-1 came to 4.3 ± 0.4 µM.

Turning to `CNC(=O)c1ccc(O[C@H]2CC[C@H](NC(=O)NC34CC5CC(CC(C5)C3)C4)CC2)cc1` [Compound 2225], in the assay with p21 [1], the p21 inhibition entry is reported as “−”.

In the case of `CNC(=O)c1ccc(O[C@H]2CC[C@H](NC(=O)Nc3ccc(OC(F)(F)F)cc3)CC2)cc1` [Compound 2227], the p21 inhibition result with p21 [1] was “−”.

Take `CNC(=O)c1ccc(O[C@H]2CC[C@H](NC(=O)Nc3ccc(Cl)c(C(F)(F)F)c3)CC2)cc1` [Compound 2253]: the 50% inhibitory concentration (IC50) on b-Raf (V600E) is above 10 µM; at human sEH, 0.0005 µM; at Raf-1, 0.34 ± 0.04 µM. Also, the p21 inhibition entry in the assay on p21 [1] was “−”.

With `CNC(=O)c1cc(O[C@H]2CC[C@H](NC(=O)Nc3ccc(Cl)c(C(F)(F)F)c3)CC2)ccn1` [Compound 2278], in the assay on p21 [1], the p21 inhibition entry is on record as “+”.

Take `O=C(Nc1ccc(Cl)c(C(F)(F)F)c1)N[C@H]1CC[C@H](Oc2ccc(C(F)(F)F)cn2)CC1` [Compound 2288]: the IC50 at human sEH is 0.0005 µM. Further, the “cytosolic p21” value with p21 [2] is “decreases cytosolic p21”. Besides, the “p21 mRNA expression” value in the assay on p21 mRNA is “decreases p21 mRNA expression”. Moreover, the p21 inhibition result with p21 [1] is “+”. In the assay with p21 [3], the “levels of other proteins (p-Akt, p-ERK, t-Akt, t-ERK, p53)” value is “not levels of other proteins” and the p21 protein level entry is recorded as “consistently decreases p21 protein level”. The cancer cell growth result in the assay with NCI60 cell lines was “inhibits cancer cell growth”. Moreover, the p21 protein stability entry in the assay on p21 [4] is “no effect on p21 protein stability”.

As for `CNC(=O)c1ccc(OC2CCC(NC(=O)Nc3ccc(Cl)c(C(F)(F)F)c3)CC2)cn1` (stereo not shown) [Compound 2316], the values for the IC50 at b-Raf (V600E), on human sEH and on Raf-1 were 0.2 ± 0.15 µM, 0.0005 µM and 0.175 ± 0.02 µM, respectively. For the same compound, the p21 inhibition entry in the assay on p21 [1] was “+”.

On to `CNC(=O)c1cc(O[C@H]2CC[C@@H](NC(=O)Nc3ccc(Cl)c(C(F)(F)F)c3)CC2)ccn1` [Compound 2319], for which the IC50 at human sEH amounted to 0.0005 µM. Moreover, the p21 inhibition result in the assay on p21 [1] was “+”.

Take `CCN(CC)C(=O)c1cc(O[C@H]2CC[C@H](NC(=O)Nc3ccc(Cl)c(C(F)(F)F)c3)CC2)ccn1` [Compound 2574]: the p21 inhibition result with p21 [1] is recorded as “+”.

As to `CNC(=O)c1cc(O[C@H]2CC[C@H](NC(=O)Nc3ccc(OC(F)(F)F)cc3)CC2)ccn1` [Compound 2575], the p21 inhibition result in the assay on p21 [1] is given as “−”.

Take `CNC(=O)c1cc(Oc2ccc(NC(=O)Nc3ccc(OC(F)(F)F)cc3)cc2)ccn1` [Compound 2576]: the values for the IC50 at human sEH and at Raf-1 were 0.0005 µM and 0.03 µM, respectively. Also, the p21 inhibition entry in the assay with p21 [1] is “+”.

For the compound `CCN(CC)C(=O)c1cc(O[C@H]2CC[C@H](NC(=O)Nc3ccc(OC(F)(F)F)cc3)CC2)ccn1` [Compound 2577], the p21 inhibition result in the assay with p21 [1] is “+”.

Regarding `O=C(Nc1ccc(OC(F)(F)F)cc1)N[C@H]1CC[C@H](Oc2ccnc(C(=O)N3CCCC3)c2)CC1` [Compound 2578], in the assay with p21 [1], the p21 inhibition entry is “−”.

On to `N#Cc1ccc(O[C@H]2CC[C@H](NC(=O)Nc3ccc(C(F)(F)F)cc3)CC2)cc1` [Compound 2579], for which the p21 inhibition entry in the assay with p21 [1] is given as “+”.

As for `N#Cc1ccc(O[C@H]2CC[C@H](NC(=O)Nc3ccc(OC(F)(F)F)cc3)CC2)cc1` [Compound 2581], the p21 inhibition result in the assay on p21 [1] was “+”.

`CNC(=O)c1cc(Oc2ccc(NC(=O)Nc3ccc(Cl)c(C(F)(F)F)c3)cc2)ccn1` [Sorafenib, reference compound]: the “p21 inhibition (reported)” value with p21 [5] was “potent and stable p21 inhibitor”. Moreover, the p21 inhibition result in the assay with p21 [1] is “+”.

For orientation: IC50 means the midpoint of a concentration-inhibition curve.
